Laboratory results reported in PubChem BioAssay AID1259407 (Chemical Carcinogenesis Research Information System (CCRIS), 2018).
The source made the active and inactive calls. The rule behind the calls is not given here.

Tested on: CCRIS mutagenicity, Ames/micronucleus/aberration tests
Experiment: CCRIS mutagenicity studies

Cn1c(N)nc2c3cccnc3ccc21
mutagenic call (End Point: IN VIVO MICRONUCLEUS, Test System: BONE MARROW POLYCHROMATIC ERYTHROCYTES, Species: MOUSE, Strain/Sex: BALB/C/MALE, Route: IP INJECTION): inactive; negative | mutagenic call (Test System: AMES SALMONELLA TYPHIMURIUM, Strain/Indicator: RAT, LIVER, MICROSOMES, Metabolic Activation: TA98, Method: PREINCUBATION): active; positive | mutagenic call (Test System: AMES SALMONELLA TYPHIMURIUM, Strain/Indicator: RAT, LIVER, S-9, Metabolic Activation: TA98, Method: PREINCUBATION): active; positive | mutagenic call (Test System: AMES SALMONELLA TYPHIMURIUM, Strain/Indicator: TA98 (1,8-DNP6), Metabolic Activation: RAT, LIVER, S-9, AROCLOR, Method: PREINCUBATION): inactive; negative | mutagenic call (Test System: AMES SALMONELLA TYPHIMURIUM, Strain/Indicator: TA98(1,8-DNP6), Metabolic Activation: RAT, LIVER, S-9, Method: STANDARD PLATE): inactive; negative | mutagenic call (Test System: AMES SALMONELLA TYPHIMURIUM, Strain/Indicator: TA98, Metabolic Activation: CYNOMOLGUS MONKEY, LIVER, MICROSOMES, Method: PREINCUBATION): active; positive | mutagenic call (Test System: AMES SALMONELLA TYPHIMURIUM, Strain/Indicator: TA98, Metabolic Activation: CYNOMOLOGUS MONKEY, LIVER, MICROSOMES, 2,3,7,8-TETRACHLORODIBENZO-P-DIOXIN, Method: PREINCUBATION): active; positive | mutagenic call (Test System: AMES SALMONELLA TYPHIMURIUM, Strain/Indicator: TA98, Metabolic Activation: CYNOMOLOGUS MONKEY, LIVER, MICROSOMES, 2-AMINO-3-METHYLIMIDAZO[4,5-F]QUINOLINE, Method: PREINCUBATION): active; positive | mutagenic call (Test System: AMES SALMONELLA TYPHIMURIUM, Strain/Indicator: TA98, Metabolic Activation: CYNOMOLOGUS MONKEY, LIVER, MICROSOMES, RIFAMPICIN, Method: PREINCUBATION): active; positive | mutagenic call (Test System: AMES SALMONELLA TYPHIMURIUM, Strain/Indicator: TA98, Metabolic Activation: HAMSTER, LIVER, S-9, AROCLOR 1254, Method: PREINCUBATION): active; positive | mutagenic call (Test System: AMES SALMONELLA TYPHIMURIUM, Strain/Indicator: TA98, Metabolic Activation: HAMSTER, LIVER, S-9, Method: PREINCUBATION): active; positive | mutagenic call (Test System: AMES SALMONELLA TYPHIMURIUM, Strain/Indicator: TA98, Metabolic Activation: HUMAN, BLOOD, CYTOSOL, Method: PREINCUBATION): active; positive | mutagenic call (Test System: AMES SALMONELLA TYPHIMURIUM, Strain/Indicator: TA98, Metabolic Activation: HUMAN, LIVER, MICROSOMES, Method: PREINCUBATION): active; positive | mutagenic call (Test System: AMES SALMONELLA TYPHIMURIUM, Strain/Indicator: TA98, Metabolic Activation: MONKEY, LIVER, MICROSOMES, Method: PREINCUBATION): active; positive | mutagenic call (Test System: AMES SALMONELLA TYPHIMURIUM, Strain/Indicator: TA98, Metabolic Activation: MONKEY, LIVER, S-9, Method: PREINCUBATION): active; positive | mutagenic call (Test System: AMES SALMONELLA TYPHIMURIUM, Strain/Indicator: TA98, Metabolic Activation: MOUSE, LIVER, HEPATOCYTES): active; positive | mutagenic call (Test System: AMES SALMONELLA TYPHIMURIUM, Strain/Indicator: TA98, Metabolic Activation: MOUSE, LIVER, HEPATOCYTES, 2,3,7,8-TETRACHLORODIBENZO-P-DIOXIN): active; positive | mutagenic call (Test System: AMES SALMONELLA TYPHIMURIUM, Strain/Indicator: TA98, Metabolic Activation: MOUSE, LIVER, MICROSOMES): active; positive | mutagenic call (Test System: AMES SALMONELLA TYPHIMURIUM, Strain/Indicator: TA98, Metabolic Activation: MOUSE, LIVER, MICROSOMES, 2,3,7,8-TETRACHLORODIBENZO-P-DIOXIN): active; positive | mutagenic call (Test System: AMES SALMONELLA TYPHIMURIUM, Strain/Indicator: TA98, Metabolic Activation: MOUSE, LIVER, MICROSOMES, TCDD, Method: STANDARD PLATE): active; positive | mutagenic call (Test System: AMES SALMONELLA TYPHIMURIUM, Strain/Indicator: TA98, Metabolic Activation: MOUSE, LIVER, MICROSOMES, Method: STANDARD PLATE): active; positive | mutagenic call (Test System: AMES SALMONELLA TYPHIMURIUM, Strain/Indicator: TA98, Metabolic Activation: MOUSE, LIVER, S-9, Method: PREINCUBATION): active; positive | mutagenic call (Test System: AMES SALMONELLA TYPHIMURIUM, Strain/Indicator: TA98, Metabolic Activation: NONE, Method: PREINCUBATION): inactive; negative | mutagenic call (Test System: AMES SALMONELLA TYPHIMURIUM, Strain/Indicator: TA98, Metabolic Activation: NONE, Method: STANDARD PLATE): inactive; negative | mutagenic call (Test System: AMES SALMONELLA TYPHIMURIUM, Strain/Indicator: TA98, Metabolic Activation: PATAS MONKEY, LIVER, MICROSOMES, Method: PREINCUBATION): active; positive | mutagenic call (Test System: AMES SALMONELLA TYPHIMURIUM, Strain/Indicator: TA98, Metabolic Activation: RAT LIVER, CYTOSOL, AROCLOR 1254, Method: STANDARD PLATE): inactive; negative | mutagenic call (Test System: AMES SALMONELLA TYPHIMURIUM, Strain/Indicator: TA98, Metabolic Activation: RAT LIVER, MICROSOMES, AROCLOR 1254, Method: STANDARD PLATE): active; positive | mutagenic call (Test System: AMES SALMONELLA TYPHIMURIUM, Strain/Indicator: TA98, Metabolic Activation: RAT, LIVER, HEPATOCYTES, AROCLOR 1254, Method: PREINCUBATION): active; positive | mutagenic call (Test System: AMES SALMONELLA TYPHIMURIUM, Strain/Indicator: TA98, Metabolic Activation: RAT, LIVER, HEPATOCYTES, Method: PREINCUBATION): active; positive | mutagenic call (Test System: AMES SALMONELLA TYPHIMURIUM, Strain/Indicator: TA98, Metabolic Activation: RAT, LIVER, MICROSOMES, Method: PREINCUBATION): active; positive | mutagenic call (Test System: AMES SALMONELLA TYPHIMURIUM, Strain/Indicator: TA98, Metabolic Activation: RAT, LIVER, S-9, 3-METHYLCHOLANTHRENE, Method: PREINCUBATION): active; positive | mutagenic call (Test System: AMES SALMONELLA TYPHIMURIUM, Strain/Indicator: TA98, Metabolic Activation: RAT, LIVER, S-9, AROCLOR, Method: PREINCUBATION): active; positive | mutagenic call (Test System: AMES SALMONELLA TYPHIMURIUM, Strain/Indicator: TA98, Metabolic Activation: RAT, LIVER, S-9, N-BENZYLIMIDAZOLE, Method: PREINCUBATION): active; positive | mutagenic call (Test System: AMES SALMONELLA TYPHIMURIUM, Strain/Indicator: TA98, Metabolic Activation: RAT, LIVER, S-9, PHENOBARBITONE, Method: PREINCUBATION): active; positive | mutagenic call (Test System: AMES SALMONELLA TYPHIMURIUM, Strain/Indicator: TA98, Metabolic Activation: RAT, LIVER, S-9, Method: STANDARD PLATE): active; positive | mutagenic call (Test System: AMES SALMONELLA TYPHIMURIUM, Strain/Indicator: TA98, Method: STANDARD PLATE): active; positive | mutagenic call (Test System: AMES SALMONELLA TYPHIMURIUM, Strain/Indicator: TA100, Metabolic Activation: NONE, Method: PREINCUBATION): inactive; negative | mutagenic call (Test System: AMES SALMONELLA TYPHIMURIUM, Strain/Indicator: TA100, Metabolic Activation: RAT, LIVER, S-9, AROCLOR 1254, Method: PREINCUBATION): active; positive | mutagenic call (Test System: AMES SALMONELLA TYPHIMURIUM, Strain/Indicator: YG1019, Metabolic Activation: RAT LIVER S-9, AROCLOR, Method: PREINCUBATION): active; positive | mutagenic call (Test System: AMES SALMONELLA TYPHIMURIUM, Strain/Indicator: YG1024, Metabolic Activation: RAT, LIVER, S-9, AROCLOR, Method: PREINCUBATION): active; positive | mutagenic call (Test System: CHINESE HAMSTER V-79, Strain/Indicator: V-79/6-THIOGUANINE, Metabolic Activation: RAT, LIVER, HEPATOCYTES, AROCLOR 1254): active; positive | mutagenic call (Test System: CHINESE HAMSTER V-79, Strain/Indicator: V-79/6-THIOGUANINE, Metabolic Activation: RAT, LIVER, S-9, AROCLOR 1254): inactive; negative | mutagenic call (Test System: E. COLI, Strain/Indicator: CC109, Metabolic Activation: RAT, LIVER, S-9, AROCLOR 1254, Method: STANDARD PLATE): active; positive | mutagenic call (Test System: E. COLI, Strain/Indicator: CC110, Metabolic Activation: RAT, LIVER, S-9, AROCLOR 1254, Method: STANDARD PLATE): active; positive | mutagenic call (Test System: E. COLI, Strain/Indicator: DJ3109, Metabolic Activation: RAT, LIVER, S-9, AROCLOR 1254, Method: STANDARD PLATE): active; positive | mutagenic call (Test System: E. COLI, Strain/Indicator: DJ3110, Metabolic Activation: RAT, LIVER, S-9, AROCLOR 1254, Method: STANDARD PLATE): active; positive | mutagenic call (Test System: E. COLI, Strain/Indicator: DJ3209, Metabolic Activation: RAT, LIVER, S-9, AROCLOR 1254, Method: STANDARD PLATE): active; positive | mutagenic call (Test System: E. COLI, Strain/Indicator: DJ3210, Metabolic Activation: RAT, LIVER, S-9, AROCLOR 1254, Method: STANDARD PLATE): active; positive | mutagenic call (Test System: UDS HAMSTER HEPATOCYTES, Strain/Indicator: THY INCORP, Metabolic Activation: NONE, Method: LIQUID SCINTILLATION COUNTING): active; positive | mutagenic call (Test System: UDS HUMAN HEPATOCYTES, Strain/Indicator: THY INCORP, Metabolic Activation: NONE, Method: AUTORADIOGRAPHY): active; positive | mutagenic call (Test System: UDS MOUSE HEPATOCYTES, Strain/Indicator: THY INCORP, Metabolic Activation: NONE, Method: AUTORADIOGRAPHY): active; positive | mutagenic call (Test System: UDS RAT HEPATOCYTES, Strain/Indicator: THY INCORP, Metabolic Activation: NONE, Method: AUTORADIOGRAPHY): inactive; negative | mutagenic call (Test System: UDS RAT HEPATOCYTES, Strain/Indicator: THY INCORP, Metabolic Activation: NONE, Method: LIQUID SCINTILLATION COUNTING): inactive; negative
